Data as given in patent US20080113969A1, “COMBINATION THERAPY FOR THE TREATMENT OF PAIN” (priority 2006, published 2008).
Entries after “also recorded” stand apart in the source; their conditions may differ.

Legend:
[1] = tested on: neuropathic pain model in male Sprague-Dawley rats; test: Neuropathic pain model (Chung model, spinal nerve ligation, von Frey withdrawal threshold); assay type: in vivo, rat; details: Chung model of chronic neuropathic pain, FIG. 8
Description: Spinal Nerve Ligation: After Animal Care and Use Committee approval, male Sprague-Dawley rats (Harlan, Indianapolis, Ind., USA) weighing 180-200 g undergo anesthesia as previously described by Kim and Chung (Pain 1992, 50, 355-363). Briefly, under general anesthesia with inhalational halothane, the left L5 and L6 spinal nerves are identified through a small laminotomy and tightly ligated. Approximately one week later, an intrathecal catheter is placed under general anesthesia by insertion under direct vision of a polyethylene catheter through a small slit in the dura at the cisterna magnum, and advanced 8.5 cm such that the catheter tip resides in the lower lumbar intrathecal space. Animals are studied approximately one week later. Ligation of the lumbar spinal nerves results in a primarily unilateral increase in the sensitivity to light touch on the operated side. Sensitivity is assessed via application of calibrated von Frey filaments. The withdrawal threshold is determined using an up down method as previously described by Chaplan et al. (J. Neurosci. Methods 1994, 53, 55-63).
Experimental Design: Animals receive, at least 4 weeks after spinal nerve ligation surgery, and at least 1 week after intrathecal catheter insertion, single injections of vehicle (β-cyclodextrin) or the drug substance, using a randomized and blinded protocol. Withdrawal thresholds are determined at intervals for up to 20 hr after injection.

[2] = tested on: inflammatory and neuropathic pain; details: previously demonstrated (Li et al. 2003, Li et al. 2002, Pan et al. 2001); cited from earlier work
[3] = tested on: postoperative pain model in adult male rats; test: Postincisional hypersensitivity model (paw incision, withdrawal threshold to von Frey filaments); assay type: in vivo, rat; details: intrathecal (i.t.), 24 h after paw incision
Method: Animal preparation: Following Animal Care and Use Committee approval, an intrathecal (i.t.) catheter with tip in the lumbar space is inserted as previously described in adult male rats weighing 250 g (Yaksh and Rudy, Physiol Behav. 1976, 7, 1032-1036). One week following the insertion of the i.t. catheter, paw incision surgery is performed as previously described (Brennan et al., Pain 1996, 64, 493-501). Briefly, animals are anesthetized with halothane, and a 1-cm long incision is made in the plantar aspect of the left hind paw starting 0.5 cm from the edge of the heel toward the toe after sterile preparation with 70% ethanol. The plantaris muscle is elevated and incised longitudinally. The wound is closed with 2 mattress sutures of 5.0 silk. Subsequently, withdrawal threshold to von Frey filaments is determined one day after surgery (Chaplan et al., J. Neurosci. Methods, 1994, 53, 55-63). For all testing but pilot dose ranging studies, investigators are blinded to study drug administration. A cut off value of 22 g is used. […]
Single drug injection: For single drug administration, a volume containing 5 μL drug is used, followed by 10 μL of saline. […] Dose response curves are first constructed, and ED40 values for single drugs are then determined at the time of peak effect.
Drug interaction: For the combination of T-62 with morphine and NBQX, two injections are performed since the time of peak effect for morphine and NBQX is 30 min earlier than that of T-62 (T-62 is injected 30 min before drug injections). Paw withdrawal thresholds are determined before surgery, before drug injection, and 30, 60, 90, 120, 150, 180, and 210 min after the second drug injection. […] The dose response curves are then constructed for the combined drugs, and the ED40 values of the combined drugs are calculated at the time point of peak effect. […]
Data analysis: Data are presented as mean ±S.E. Withdrawal threshold data are analyzed by two-way analysis of variance followed by Fisher's LSD test. […] Isobolograms are statistically analyzed by student T test.

SMILES	anti-allodynic effect [1]	relative potency among the three enhancers [1]	effect on inflammatory and neuropathic pain [2]	anti-hypersensitivity effect (mechanical hypersensitivity) [3]
Nc1sc2c(c1C(=O)c1ccccc1)CCS2 [formula (Ib)]	dose-dependent anti-allodynic effects			
Nc1sc2c(c1C(=O)c1cccc3ccccc13)CCC2 [formula (Ic)]	dose-dependent anti-allodynic effects	most potent enhancer of the three agents		
Nc1sc2c(c1C(=O)c1ccc(Cl)cc1)CCCC2 [T-62, (2-amino-4,5,6,7-tetrahydrobenzo[b]thiophen-3-yl)(4-chlorophenyl)methanone]	dose-dependent anti-allodynic effects		reduce inflammatory and neuropathic pain	reduced mechanical hypersensitivity in a time dependent manner; also recorded: modest effect
NS(=O)(=O)c1cccc2c1c([N+](=O)[O-])cc1nc(O)c(O)nc12 [NBQX, 2,3-dihydroxy-6-nitro-7-sulfamoylbenzo(f)quinoxaline, reference compound]				reduces the mechanical hypersensitivity in a time and dose dependent manner
CN1CC[C@]23c4c5ccc(O)c4O[C@H]2[C@@H](O)C=C[C@H]3[C@H]1C5 [Morphine, morphine, reference compound]				reduces mechanical hypersensitivity in a time and dose dependent manner
